Results as given in US7393640B2, “Terminal-phosphate-labeled nucleotides with new linkers” (GE Healthcare Bio-Sciences Corp., priority 2003, dated 2008).
Like-named read-outs stand apart in the source and are kept apart here.

Tests used:
[1] = tested on: cloned DNA polymerase I genetically engineered to eliminate 3′-5′ exonuclease activity, 5′-3′ exonuclease activity and discrimination against …; assay: Template-directed incorporation of gamma phosphate-labeled ddNTP with shrimp alkaline phosphatase, fluorescence read-out; type: biochemical; details: 2 μM nucleotide, 5 mM MgCl2, 0.25 mM MnCl2, shrimp alkaline phosphatase
Description: Reactions were assembled at room temperature (23° C.) using the dideoxynucleotide of Example (1).
Referring now to FIG. 1, for template 1 (SEQ ID NO: 2) in the present example, DNA polymerase would be expected to extend the primer with labeled ddGTP. Similarly, for template 2 (SEQ ID NO: 3) in FIG. 1, DNA polymerase would be expected to extend the primer with ddATP, but not with labeled ddGTP.
(§1) Reaction conditions: A 70 μl reaction containing 25 mM Tris, pH 8.0, 5% glycerol 5 mM MgCl2, 0.5 mM beta-mercaptoethanol, 0.01% tween-20, 0.25 units shrimp alkaline phosphatase, 100 nM primer annealed to template (the next template nucleotide is either dCMP or dTMP, as indicated), and 2 μM ddGTP-CF3-Coumarin was assembled in a quartz fluorescence ultra-microcuvet in a LS-55 Luminescence Spectrometer (Perkin Elmer), operated in time drive mode. Excitation and emission wavelengths are 390 nm and 500 nm respectively. Slit widths were 5 nm for excitation slits, 15 nm for emission slits. The reaction was initiated by the addition of 0.35 μl (11 units) of a cloned DNA polymerase I genetically engineered to eliminate 3′-5′ exonuclease activity, 5′-3′ exonuclease activity and discrimination against dideoxynucleotides and 0.25 mM MnCl2.
Reactions were assembled at room temperature (23° C.) using the dideoxynucleotide of Example (2).
Referring now to FIG. 2, for template 2 (SEQ ID NO: 3) in the present example, DNA polymerase would be expected to extend the primer with labeled ddATP. Similarly, for template 1 (SEQ ID NO: 2) in FIG. 2, DNA polymerase would be expected to extend the primer with ddGTP, but not with labeled ddATP.
as §1, with “template,” for “template (the next template nucleotide is either dCMP or dTMP, as indicated),”, “ddATP-CN-Coumarin” for “ddGTP-CF3-Coumarin”, “410” for “390”, “450” for “500”

various polymerases = assay: Effect of MnCl2 on incorporation of terminal-phosphate labeled nucleotide on oligo dT/poly dA; type: biochemical; details: 10 uM nucleotide, 60° C.
Description: Oligo dT (35mer) was annealed with poly dA by mixing equal volumes of each at 20 uM conc, and incubating at 80° C. for 4 min and instant cooling on ice. 1 ul of this solution was mixed into a 20 ul reaction containing 25 mM Hepes, pH 8.0, 0.01% Tween-20, 10 uM dT4P-DDAO, 0.005 u/ul BAP, a polymerase at concentrations shown in FIG. 7 and various concentrations of MnCl2—and MgCl2.

Phi 29 exo-polymerase = details: 0.7 mM MnCl2 only, 25 uM nucleotide, template SEQ ID NO: 4 (FIG. 6)
Phi 29 exo-polymerase, sequence (P03680 190-575 limits assumed): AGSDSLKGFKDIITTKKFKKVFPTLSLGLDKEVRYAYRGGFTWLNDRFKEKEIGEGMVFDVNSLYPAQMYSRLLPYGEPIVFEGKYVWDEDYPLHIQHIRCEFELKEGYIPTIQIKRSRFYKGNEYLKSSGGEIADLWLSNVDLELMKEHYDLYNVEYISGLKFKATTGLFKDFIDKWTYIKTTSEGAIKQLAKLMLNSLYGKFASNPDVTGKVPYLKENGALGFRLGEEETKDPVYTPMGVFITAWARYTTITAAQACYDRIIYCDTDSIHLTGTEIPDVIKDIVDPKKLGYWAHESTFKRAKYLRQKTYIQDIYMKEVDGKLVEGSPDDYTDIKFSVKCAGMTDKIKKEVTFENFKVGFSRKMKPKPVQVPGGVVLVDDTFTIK
Description: Using the same primer as in example 9 and template (SEQ ID NO: 4), incorporation of dCTP-DAH-ROX at various times after the reaction was initiated, was investigated. Assay conditions were as follows: Total reaction volume: 30 ul containing 100 nM primer/template, 100 nM Phi 29 exo-polymerase, 50 mM Tris pH 7.5, 75 mM KCl, 0.7 mM MnCl2, 0.1 mM DTT, 0.3 mg/ml BSA. Reaction was initiated by addition of ROX-dCTP to a conc. of 25 uM.

[2] = tested on: Thermo Sequenase I DNA polymerase; assay: Relative incorporation of phosphate labeled versus base labeled nucleotides in magnesium or manganese buffer; type: biochemical; details: 5 mM MnCl2 vs 5 mM MgCl2, 1 μM nucleotide, 50 degrees C., 10 minutes
Description: Reactions (10 μl, 50 degrees C., 10 minutes) contained 1× reaction buffer (25 mM HEPES 8.5, 0.01% tween-20), 3 μg activated DNA (Chromosomal DNA), 5 mM either MnCl2 (circles) or MgCl2 (squares), 1 μM either FAM-TAM-11-ddTTP (dashed lines) or ddT4P-DDAO (solid lines), with a serial 4 fold dilution of Thermo Sequenase I™ DNA polymerase from 10 units per reaction down to 0.01 units per reaction. Results (FIG. 3) were plotted out both on a linear scale and logarithmic scale to show both linearity with enzyme and relative incorporation efficiency.

[3] = Primer: Template 1 (SEQ ID NO: 2), next template nucleotide dC
[4] = Primer: Template 2 (SEQ ID NO: 3), next template nucleotide dT

In the case of `Nc1nc2c(ncn2[C@H]2CC[C@@H](COP(=O)(O)OP(=O)(O)OP(=O)(O)Oc3ccc4c(C(F)(F)F)cc(=O)oc4c3)O2)c(=O)[nH]1` [gamma labeled ddGTP, γ-(4-trifluoromethylcoumarinyl)dideoxyguanosine-5′-triphosphate], the dye emission [1, 3] is reported as “dye emission was detected” and the dye emission [1, 4] is reported as “No detectable dye emission”.
For `N#Cc1cc2ccc(OP(=O)(O)OP(=O)(O)OP(=O)(O)OC[C@@H]3CC[C@H](n4cnc5c(N)ncnc54)O3)cc2oc1=O` [gamma labeled ddATP, γ-(3-cyanocoumarinyl)dideoxyadenosine-5′-triphosphate], the dye emission [1, 3] was “No detectable dye emission” and the dye emission [1, 4] was “dye emission was detected”.
For `Cc1cn([C@H]2C[C@H](O)[C@@H](COP(=O)(O)OP(=O)(O)OP(=O)(O)OP(=O)(O)Oc3ccc4c(c3)C(C)(C)C3=C(Cl)C(=O)C(Cl)=CC3=N4)O2)c(=O)[nH]c1=O` [dT4P-DDAO, 2′-Deoxythymidine-5′-(δ-7-(9H-(1,3-dichloro-9,9-dimethylacridin-2-one)))tetraphosphate], the “rate of incorporation in the absence of MnCl2” value (various polymerases; 15 or 30 minutes (FIG. 7)) was “extremely slow” and the “effect of MnCl2, alone or in the presence of MgCl2, on the rate of incorporation” value (various polymerases; 15 or 30 minutes, all the polymerases tested (FIG. 7)) was “major positive impact on the rate of incorporation”.
With “ROX-amidoheptyl-gamma-amido-deoxycytidine-triphosphate [dCTP-DAH-ROX]” the misincorporation (Phi 29 exo-polymerase) was “no misincorporation takes place” and the misincorporation (Phi 29 exo-polymerase; listed as dCTP-γ-ROX) was “No misincorporation was observed”.
With `Cc1cn([C@H]2CC[C@@H](COP(=O)(O)OP(=O)(O)OP(=O)(O)OP(=O)(O)Oc3ccc4c(c3)C(C)(C)C3=C(Cl)C(=O)C(Cl)=CC3=N4)O2)c(=O)[nH]c1=O` [ddT4P-DDAO, δ-9H(1,3-dichloro-9,9-dimethylacridin-2-one-7-yl)-dideoxythymidine-5′-tetraphosphate] the “increase in incorporation efficiency in the manganese buffer relative to the magnesium buffer” value [2] was 28 fold.
